Reference: ChEMBL document CHEMBL1126045, “Alanine series of ovine corticotropin releasing factor (oCRF): a structure-activity relationship study” (J Med Chem, 1992)

Tests used:
Pituitary gland cell [1] = experiment: In vitro ability of the compound (peptide) to stimulate ACTH release by rat anterior pituitary cells in relative to Ovine corticotropin releasing factor (oCRF) in experiment 2; assay type: cell-based; design: unit not given here
Pituitary gland cell [2] = experiment: In vitro ability of the compound (peptide) to stimulate ACTH release by rat anterior pituitary cells in relative to Ovine corticotropin releasing factor (oCRF) in experiment 1; assay type: cell-based; design: unit not given here

Molecule	Relative potency (Pituitary gland cell [1])	Relative potency (Pituitary gland cell [2])
CC[C@H](C)[C@H](NC(=O)[C@H](CC(=O)O)NC(=O)[C@H](CC(C)C)NC(=O)[C@H](CC(C)C)NC(=O)[C@H](CCCCN)NC(=O)[C@H](CCCN=C(N)N)NC(=O)[C@H](CC(N)=O)NC(=O)[C@H](CO)NC(=O)[C@H](Cc1c[nH]cn1)NC(=O)[C@H](C)NC(=O)[C@H](CCC(N)=O)NC(=O)[C@H](CCC(N)=O)NC(=O)[C@H](C)NC(=O)[C@H](CC(C)C)NC(=O)[C@H](CCC(N)=O)NC(=O)[C@H](CC(=O)O)NC(=O)[C@H](C)NC(=O)[C@H](CCCCN)NC(=O)[C@@H](NC(=O)[C@H](CCSC)NC(=O)[C@H](CCC(=O)O)NC(=O)[C@H](CC(C)C)NC(=O)[C@@H](NC(=O)[C@H](CCC(=O)O)NC(=O)[C@H](CCCN=C(N)N)NC(=O)[C@H](CC(C)C)NC(=O)[C@H](CC(C)C)NC(=O)[C@H](Cc1c[nH]cn1)NC(=O)[C@H](Cc1ccccc1)NC(=O)[C@@H](NC(=O)[C@H](CC(C)C)NC(=O)[C@H](CC(=O)O)NC(=O)[C@H](C)NC(=O)[C@H](CO)NC(=O)[C@@H](NC(=O)[C@@H]1CCCN1C(=O)[C@@H]1CCCN1C(=O)[C@H](CCC(=O)O)NC(=O)[C@H](CCC(N)=O)NC(=O)[C@@H](N)CO)[C@@H](C)CC)[C@@H](C)O)C(C)C)[C@@H](C)O)C(=O)N[C@@H](C)C(N)=O	0.005	0.03
CC[C@H](C)[C@H](NC(=O)[C@H](CC(=O)O)NC(=O)[C@H](CC(C)C)NC(=O)[C@H](CC(C)C)NC(=O)[C@H](CCCCN)NC(=O)[C@H](CCCN=C(N)N)NC(=O)[C@H](CC(N)=O)NC(=O)[C@H](CO)NC(=O)[C@H](Cc1c[nH]cn1)NC(=O)[C@H](C)NC(=O)[C@H](CCC(N)=O)NC(=O)[C@H](CCC(N)=O)NC(=O)[C@H](C)NC(=O)[C@H](CC(C)C)NC(=O)[C@H](CCC(N)=O)NC(=O)[C@H](CC(=O)O)NC(=O)[C@H](C)NC(=O)[C@H](CCCCN)NC(=O)[C@@H](NC(=O)[C@H](CCSC)NC(=O)[C@H](CCC(=O)O)NC(=O)[C@H](CC(C)C)NC(=O)[C@@H](NC(=O)[C@H](CCC(=O)O)NC(=O)[C@H](CCCN=C(N)N)NC(=O)[C@H](CC(C)C)NC(=O)[C@H](CC(C)C)NC(=O)[C@H](Cc1c[nH]cn1)NC(=O)[C@H](Cc1ccccc1)NC(=O)[C@@H](NC(=O)[C@H](CC(C)C)NC(=O)[C@H](CC(=O)O)NC(=O)[C@H](CC(C)C)NC(=O)[C@H](C)NC(=O)[C@@H](NC(=O)[C@@H]1CCCN1C(=O)[C@@H]1CCCN1C(=O)[C@H](CCC(=O)O)NC(=O)[C@H](CCC(N)=O)NC(=O)[C@@H](N)CO)[C@@H](C)CC)[C@@H](C)O)C(C)C)[C@@H](C)O)C(=O)N[C@@H](C)C(N)=O	0.21	0.16
H-SQEPPISLDLTFHALREVLEMTKADQLAQQAHSNRKLLDIA-NH2	0.001	0.001
H-SQEPPISLDLTFHLLREVLAMTKADQLAQQAHSNRKLLDIA-NH2	1.6	2.8
H-SQEPPISLDLTFHLLREVLEMTKADQAAQQAHSNRKLLDIA-NH2	0.38	0.6
H-SQEPPISLDLTFHLLREVLEMTKADQLAAQAHSNRKLLDIA-NH2	1.4	1
H-SQEPPISLDLTFHLLREVLEMTKADQLAQQAHSNRKLADIA-NH2	0.0002	0.004
